Measurements from ChEMBL document CHEMBL1129822, “Thermal atropisomerism of fully functionalized vancomycin CD, DE, and CDE ring systems” (Bioorg Med Chem Lett, 1997).

How the values were obtained:
Type in all cases: ADME
[1] = Half-life at 140 degrees C in DMSO
[2] = Half-life at 140 degrees C in ortho dichloro benzene; details: ortho-dichlorobenzene
[3] = The equilibrium constant at 140 degrees C in DMSO
[4] = The equilibrium constant at 140 in ortho dichloro benzene
[5] = Half-life at 125 degrees C in DMSO
[6] = The equilibrium constant at 125 degrees C in DMSO
[7] = Half-life at 155 degrees C in DMSO
[8] = The equilibrium constant at 155 degrees C in DMSO

SMILES	half-life [1] [h]	half-life [2] [h]	k [3] [h⁻¹]	k [4] [h⁻¹]	half-life [5] [h]	k [6] [h⁻¹]	half-life [7] [h]	k [8] [h⁻¹]
COC(=O)[C@H]1NC(=O)[C@@H](c2ccc(OC)c(Br)c2)NC(=O)[C@H](NC(=O)OC(C)(C)C)c2cc(O)c(OC)c(c2)Oc2ccc(cc2Cl)[C@H]1O[Si](C)(C)C(C)(C)C	4.03	53	0.071	0.0054	–	–	–	–
COc1c(O)cc2cc1Oc1ccc(cc1[N+](=O)[O-])[C@@H](O)[C@@H](NC(=O)OC(C)(C)C)C(=O)N[C@@H](CC(N)=O)C(=O)N[C@H]2C(=O)OC(C)(C)C	0.092	–	2.06	–	0.28	0.88	–	–
COC(=O)[C@H]1NC(=O)[C@@H](c2ccc(OC)c(Br)c2)NC(=O)[C@H](NC(=O)OC(C)(C)C)c2cc(O)c(OC)c(c2)Oc2ccc(cc2[N+](=O)[O-])[C@H]1O[Si](C)(C)C(C)(C)C	3.52	9.77	0.082	0.029	–	–	1.06	0.27
